Patent US9822099B2, “Triazole derivatives” (priority 2013, dated 2017)
Like-named read-outs stand apart in the source and are kept apart here. Marks after values point to notes of the source that are not given here.

Legend:
[1] = test system: Puccinia recondita; assay: Example B: in vivo preventive test on Puccinia recondita (brown rust on wheat); conditions: wheat plants, preventive spray, evaluated 11 days after inoculation
Protocol: (§1) The young plants of wheat are treated by spraying the active ingredient prepared as described above. Control plants are treated only with an aqueous solution of acetone/Dimethyl sulfoxide/Tween®. After 24 hours, the plants are contaminated by spraying the leaves with an aqueous suspension of Puccinia recondita spores.

[2] = test system: Septoria tritici; assay: Example D: in vivo preventive test on Septoria tritici (leaf spot on wheat); conditions: wheat plants, preventive spray, evaluated 24 days after inoculation
Protocol: as §1, with “Septoria tritici” for “Puccinia recondita”

[3] = test system: Sphaerotheca fuliginea; assay: Example E: in vivo preventive test on Sphaerotheca fuliginea (powdery mildew on cucurbits); conditions: gherkin plants, preventive spray, evaluated 15 days after inoculation
Protocol: as §1, with “gherkin” for “wheat”, “Sphaerotheca fuliginea” for “Puccinia recondita”

[4] = test system: Pyrenophora teres; assay: Example C: in vivo preventive test on Pyrenophora teres (net blotch on barley); conditions: barley plants, preventive spray, evaluated 14 days after inoculation
Protocol: as §1, with “barley” for “wheat”, “Pyrenophora teres” for “Puccinia recondita”

[5] = test system: Botrytis cinerea; assay: Example A: in vivo preventive test on Botrytis cinerea (grey mould); conditions: gherkin plants, preventive spray, evaluated 4 to 5 days after inoculation
Protocol: as §1, with “gherkin” for “wheat”, “Botrytis cinerea” for “Puccinia recondita”

[6] = test system: Uromyces appendiculatus; assay: Example F: in vivo preventive test on Uromyces appendiculatus (bean rust); conditions: bean plants, preventive spray, evaluated 11 days after inoculation
Protocol: as §1, with “bean” for “wheat”, “Uromyces appendiculatus” for “Puccinia recondita”

[7] = test system: Phakopsora pachyrhizi; assay: Example L: Phakopsora test (soybeans)/preventive; assay type: in vivo; conditions: 10 ppm of active ingredient, preventive, evaluated 7 days after inoculation
[8] = test system: Fusarium graminearum; assay type: in vivo; conditions: 500 ppm of active ingredient; barley, preventive; evaluated 5 days after inoculation
[9] = test system: Pyricularia oryzae; assay type: in vivo; conditions: 500 ppm of active ingredient; rice, preventive; evaluated 8 days after inoculation
[10] = test system: Blumeria graminis f. sp. hordei; assay: Example G: Blumeria test (barley)/preventive; assay type: in vivo; conditions: 500 ppm of active ingredient, preventive, evaluated 7 days after inoculation
Protocol: (§2) Solvent: 49 parts by weight of N,N-dimethylacetamide Emulsifier: 1 part by weight of alkylaryl polyglycol ether To produce a suitable preparation of active compound, 1 part by weight of active compound or active compound combination is mixed with the stated amounts of solvent and emulsifier, and the concentrate is diluted with water to the desired concentration. To test for preventive activity, young plants are sprayed with the preparation of active compound or active compound combination at the stated rate of application. After the spray coating has been dried, the plants are dusted with spores of Blumeria graminis f. sp. hordei.

[11] = test system: Fusarium nivale (var. majus); assay: Example J: Fusarium nivale (var. majus)-test (wheat)/preventive; assay type: in vivo; conditions: 500 ppm of active ingredient, preventive, evaluated 5 days after inoculation
Protocol: Solvent: 49 parts by weight of N,N-dimethylacetamide
Emulsifier: 1 part by weight of alkylaryl polyglycol ether
To produce a suitable preparation of active compound, 1 part by weight of active compound or active compound combination is mixed with the stated amounts of solvent and emulsifier, and the concentrate is diluted with water to the desired concentration.
To test for preventive activity, young plants are sprayed with the preparation of active compound or active compound combination at the stated rate of application.
After the spray coating has been dried, the plants are slightly injured by using a sandblast and afterwards they are sprayed with a conidia suspension of Fusarium nivale (var. majus).
The plants are placed in the greenhouse under a translucent incubation cabinet at a temperature of approximately 10° C. and a relative atmospheric humidity of approximately 100%.
The test is evaluated 5 days after the inoculation. 0% means an efficacy which corresponds to that of the untreated control, while an efficacy of 100% means that no disease is observed.

[12] = test system: Leptosphaeria nodorum; assay: Example K: Leptosphaeria nodorum test (wheat)/preventive; assay type: in vivo; conditions: 500 ppm of active ingredient, preventive, evaluated 8 days after inoculation
Protocol: as §2, with “sprayed” for “dusted”, “a spore suspension” for “spores”, “Leptosphaeria nodorum.” for “Blumeria graminis f. sp. hordei.”

OC(Cc1ccncn1)(Cn1cncn1)C1(Cl)CC1 (stereo not shown) [Example I-50]
LogP (pH 2.7): 1.10^[a]
Eff. % ([1]; 500 ppm of active ingredient): 94%
Eff. % ([2]; 500 ppm of active ingredient): 100%
Eff. % ([3]; 500 ppm of active ingredient): 100%
Eff. % ([4]; 500 ppm of active ingredient): 79%
Eff. % ([5]; 500 ppm of active ingredient): 100%
Eff. % ([6]; 500 ppm of active ingredient): 100%

OC(Cc1ncccc1Cl)(Cn1cncn1)C1(Cl)CC1 (stereo not shown) [Example I-2]
LogP (pH 2.7): 2.28^[a]
Eff. % ([1]; 500 ppm of active ingredient): 94%
Eff. % ([2]; 500 ppm of active ingredient): 100%
Eff. % ([3]; 500 ppm of active ingredient): 95%
Eff. % ([5]; 500 ppm of active ingredient): 94%
Eff. % ([6]; 500 ppm of active ingredient): 100%

CC(Oc1ccc(Cl)cc1)C(O)(Cc1cccnc1Cl)Cn1cncn1 (stereo not shown) [Example I-16]
Eff. % ([1]; 100 ppm of active ingredient): 75%
Eff. % ([2]; 100 ppm of active ingredient): 98%
Eff. % ([3]; 100 ppm of active ingredient): 100%
Eff. % ([5]; 100 ppm of active ingredient): 87%
Eff. % ([6]; 100 ppm of active ingredient): 91%

OC(Cc1nccnc1Cl)(Cn1cncn1)C1(Cl)CC1 (stereo not shown) [Example I-30]
LogP (pH 2.7): 1.86^[a]
Eff. % ([3]; 100 ppm of active ingredient): 94%
Eff. % [7]: 75%
Eff. % ([6]; 100 ppm of active ingredient): 100%

OC(Cc1nccnc1Br)(Cn1cncn1)C1(Cl)CC1 (racemic) [Example I-71]
LogP (pH 2.7): 1.96^[a]
Eff. % ([1]; 500 ppm of active ingredient): 94%
Eff. % ([2]; 500 ppm of active ingredient): 100%
Eff. % [8]: 100%
Eff. % [9]: 80%
Eff. % [10]: 100%
Eff. % ([3]; 500 ppm of active ingredient): 100%
Eff. % [11]: 94%
Eff. % ([4]; 500 ppm of active ingredient): 79%
Eff. % ([5]; 500 ppm of active ingredient): 100%
Eff. % ([6]; 500 ppm of active ingredient): 99%

OC(Cc1ncnc(Cl)c1Cl)(Cn1cncn1)C1(Cl)CC1 (stereo not shown) [Example I-57]
LogP (pH 2.7): 2.28^[a]
Eff. % ([1]; 500 ppm of active ingredient): 86%
Eff. % ([2]; 500 ppm of active ingredient): 92%
Eff. % [10]: 100%
Eff. % ([3]; 500 ppm of active ingredient): 95%
Eff. % [11]: 71%
Eff. % ([4]; 500 ppm of active ingredient): 88%
Eff. % ([6]; 500 ppm of active ingredient): 96%

OC(Cc1ccc2ccccc2n1)(Cn1cncn1)C1(Cl)CC1 (stereo not shown) [Example I-1]
LogP (pH 2.7): 1.64^[a]
Eff. % ([4]; 100 ppm of active ingredient): 83%
Eff. % ([6]; 100 ppm of active ingredient): 80%

OC(Cc1cccnc1Cl)(Cn1cncn1)C1(Cl)CC1 (single isomer, unassigned) [Example I-94]
Eff. % [12]: 71%
LogP (pH 2.7): 1.81^[a]
LogP (pH 7.8): 1.79^[b];
Eff. % [9]: 70%
Eff. % [10]: 100%
Eff. % [11]: 100%

OC(Cc1ccc(Cl)c(Cl)n1)(Cn1cncn1)C1(Cl)CC1 (stereo not shown) [Example I-31]
Eff. % [12]: 88%
LogP (pH 2.7): 2.66^[a]
Eff. % ([1]; 100 ppm of active ingredient): 83%
Eff. % ([2]; 100 ppm of active ingredient): 100%
Eff. % [10]: 100%
Eff. % ([3]; 100 ppm of active ingredient): 90%
Eff. % [11]: 75%
Eff. % ([6]; 100 ppm of active ingredient): 94%

OC(COc1ccc(F)cc1)(Cc1ccncc1Cl)Cn1cncn1 (racemic) [Example I-79]
LogP (pH 2.7): 1.86^[a]
Eff. % ([1]; 500 ppm of active ingredient): 98%
Eff. % ([2]; 500 ppm of active ingredient): 100%
Eff. % ([3]; 500 ppm of active ingredient): 100%
Eff. % ([5]; 500 ppm of active ingredient): 99%
Eff. % ([6]; 500 ppm of active ingredient): 100%

OC(CCc1ccccc1Cl)(Cc1ccncc1Cl)Cn1cncn1 (racemic) [Example I-68]
LogP (pH 2.7): 2.29^[a]
Eff. % ([1]; 500 ppm of active ingredient): 94%
Eff. % ([2]; 500 ppm of active ingredient): 100%
Eff. % ([3]; 500 ppm of active ingredient): 100%
Eff. % ([4]; 500 ppm of active ingredient): 71%
Eff. % ([6]; 500 ppm of active ingredient): 100%
